Experimental data: PMC5065237, “Investigation into the Mode of Phosphate Activation in the 4-Hydroxy-4-Methyl-2-Oxoglutarate/4-Carboxy-4-Hydroxy-2-Oxoadipate Aldolase from Pseudomonas putida F1” (PLoS ONE, 2016)

Assays:
HMG/CHA aldolase [1] = molecular target: T1, HMG/CHA aldolase (Pseudomonas putida, UniProt A5W059); assay: aldol cleavage, LDH-coupled NADH oxidation at […] nm; format: biochemical; settings: substrate inhibition constant, 1 mM MgCl2, 0.1 M HEPES pH 8.0, 25 °C, racemic substrate
T1 construct: gene Pput_1361; recombinant from pT7-7, expressed in E. coli; chelex-treated apo-enzyme reconstituted with MgCl2
T1 sequence (A5W059 whole entry): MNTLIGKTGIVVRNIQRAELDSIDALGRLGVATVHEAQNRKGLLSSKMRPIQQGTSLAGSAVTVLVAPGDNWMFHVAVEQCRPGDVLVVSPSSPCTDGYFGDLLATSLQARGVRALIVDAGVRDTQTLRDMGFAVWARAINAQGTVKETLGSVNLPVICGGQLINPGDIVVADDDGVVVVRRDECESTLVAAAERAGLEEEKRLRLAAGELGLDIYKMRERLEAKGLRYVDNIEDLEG

HMG/CHA aldolase [2] = molecular target: T1, HMG/CHA aldolase; assay: decarboxylation, LDH-coupled NADH oxidation at […] nm; format: biochemical; settings: substrate inhibition constant, 1 mM MgCl2, 0.1 M HEPES pH 8.0, 25 °C

Structure (SMILES)	Without Pi / Ksi (HMG/CHA aldolase [1]) [mM]	Without Pi / Ksi (HMG/CHA aldolase [2]) [mM]
CC(O)(CC(=O)C(=O)O)C(=O)O (racemic) [HMG]	1.80 ± 0.091	–
O=C(O)CC(=O)C(=O)O [OAA]	–	0.360 ± 0.049
